For 87 compounds, melting point results are on record in a melting point compilation (Tetko et al.; mined from patent text by program, amines drawn as free bases though some values may be those of a salt).

On to `CCOCc1nc2c(N)nc3cccnc3c2n1CC1(O)CCC1`, for which the melting point (usually the temperature, or range, at which the solid turns liquid) lay in the range of 162 to 163 °C. Take `C=CC(=O)NCCNC(=O)C=C`: the melting point is 150 to 155 °C. In turn, `CCOC(=O)CCc1[nH]c2cccc3c2c1CC1C3CC(NC(=O)N(CC)CC)CN1C` (configuration not stated) registered a melting point of 160 to 161 °C. Compound `Cc1nccn1CCC(C(N)=O)(c1ccccc1)c1ccccc1` had a melting point of 191 to 193 °C.

As to `CC(C)Oc1cc(CCCO)n(Cc2ccc(Cl)cc2Cl)n1`, the melting point lay in the range of 51 to 52 °C.

Take `CN(C)CCC(O)c1ccccc1` (configuration not stated): the melting point lay in the range of 45 to 46 °C. Next, `Cc1cc(C)cc(COC2CCCCC2(N)c2ccccc2)c1` (configuration not stated): 75 to 78 °C; `O=C(O)CN1CCN(c2ccnc(-c3nc(=O)c4ccccc4s3)c2)C1=O`: 271 to 273 °C.

`Cc1ccc(C(=O)COc2ccc(Br)cc2CO)cc1` returned a melting point of 125 to 127 °C. The compound `O=CC1=CCC(F)(C2COC(c3c(F)cccc3F)=N2)C=C1` (configuration not stated) yielded a melting point of 105 to 106 °C. `O=C(COc1ccc(CCNS(=O)(=O)c2ccc(Cl)cc2)cc1)Nc1nnn[nH]1` showed a melting point of 228 to 230 °C. In turn, `COc1cccc(N2CCN(CCCO)CC2)c1` gave a melting point of 87 to 89 °C. The compound `CCN(CC)C(=O)c1ccc(C(=C2CCN(Cc3ccccc3)CC2)c2cccc(OC)c2)cc1` returned a melting point of 100 to 110 °C.

In turn, `CC(C)CNS(=O)(=O)c1cccc(NC(=O)c2cnn3c(C(F)(F)F)cc(-c4ccc(C(F)(F)F)cc4)nc23)c1` yielded a melting point of 205 °C. `O=C(O)c1cc2ncnn2nc1NCCCN1CCC(OC(c2ccccc2)c2ccccc2)CC1`: the melting point lay in the range of 207 to 209 °C. Regarding `Cc1cnn(-c2cc(N)c(Cl)cc2Cl)c(=O)c1Br`, the melting point was 211 °C. Next, `CCCCc1nc(Cl)c(CO)n1Cc1ccc(-c2cccc(C(=O)OC)c2)cc1`: 162 to 163 °C; `Oc1cc(O)n2nc(-c3ccc(F)cc3)c(-c3ccncc3)c2n1`: above 250 °C; `O=C(O)c1ccc(COCc2csc3nc(C(=O)NCc4cccc(OC(F)(F)F)c4)[nH]c(=O)c23)cc1`: 248 to 250 °C.

For `COc1ccc(N2CCN(c3ccc(-n4ccn(CC(F)(F)F)c4=O)cc3)CC2)cc1`, the melting point stood at 224 °C. Compound `Oc1cccc2c1CC(NC1CC1)CO2` (configuration not stated) yielded a melting point of 147 to 148 °C.

On to `CC(C)Oc1ccc(CCCO)c(Oc2ncc(C(F)(F)F)cc2Cl)c1`, for which the melting point is 72 to 73 °C. Next, `COc1ccccc1SCc1c(C(C)C)nc(C(C)C)c(CO)c1-c1ccc(F)cc1`: 129 to 131 °C. Compound `O=C1c2ccccc2C(=O)c2cc(S(=O)(=O)NCCCN3CCOCC3)ccc21` returned a melting point of 151 to 156 °C.

For the compound `O=P(O)(O)C(O)c1ccccc1` (configuration not stated), the melting point fell in the range of 160 to 162 °C. Consider `CC(C)(C)c1cc(NC(=O)Nc2ccccc2C(=O)NC2CCN(C(c3ccccc3)c3ccccc3)CC2)cc(C(C)(C)C)c1O`, for which the melting point lay in the range of 218 to 225 °C.

The compound `Cc1ccc([N+](=O)[O-])cc1NC(N)=S` displayed a melting point of 164 to 166 °C. Next, `COc1ccc2cc([C@H](C)C(=O)SCCCCO[N+](=O)[O-])ccc2c1`: 30 to 35 °C; `CC(C)Cc1nc2cc(C(c3cccc(Cl)c3)n3ccnc3)ccc2[nH]c1=O` (configuration not stated): 210 °C; `COC(=O)C1=C(C#N)NC(C)=C(C(=O)OCC(C)C)C1c1ccccc1C#N` (configuration not stated): 196 to 198 °C. Regarding `N#Cc1ccc(Cl)cc1OCC(O)CNc1ccccc1OC1CC=NNC1=O` (configuration not stated), the melting point was 156 to 158 °C. In the case of `Cc1cc(Cc2ccccc2)c(NCc2ccccn2)c(=O)n1CC(=O)O`, the melting point was 63 °C. Next, `Oc1ccc2c(c1)Oc1cc(O)ccc1C2(C(F)(F)F)C(F)(F)F`: 209 to 210 °C; `CC(C)(C)c1c(-c2ccc(S(C)(=O)=O)cc2)cnn(-c2ccc(F)c(F)c2)c1=O`: 158 to 161 °C. Next, `CCOC(=O)c1nsc(=O)o1`: 49 °C; `CCOC(=O)CNC(=O)C[C@H]1O[C@@H](c2ccccc2)c2cc(Cl)ccc2N(C(C)C)C1=O` (relative stereo): 188 to 190 °C; `CCCCCCCCCCCCCc1c[nH]c(C(=O)OCC)c1`: 59 to 60 °C. `O=C1Cc2cccc(S(=O)c3ccccc3Cl)c2N1` (configuration not stated) showed a melting point of 243 to 245 °C. Under `CSC1C(=O)Nc2c(Nc3ccccc3Cl)cccc21` (configuration not stated) stands 151 to 153 °C; under `CCOc1nc(C(=O)O)ccc1CN`, 226 to 228 °C. The compound `O=C1CC2CS(=O)c3ccccc3C2=NN1c1ccc(Cl)cc1` (configuration not stated) showed a melting point of 190 to 192 °C.

`COc1cc(OC)c2c(=O)[nH]c(-c3ccc4[nH]c(CCO)cc4c3)nc2c1`: the melting point lay in the range of 237 to 238 °C. Consider `CC(C#Cc1ccc(OCc2ccccc2)cc1)N(O)C(N)=O` (configuration not stated), for which the melting point was 154 to 156 °C. Compound `O=C=Nc1cc(OC(=O)Oc2cc(N=C=O)c(F)cc2Cl)c(Cl)cc1F` came in with a melting point of 108 to 109 °C. For `O=C1CCS(=O)(=O)C1=NO`, the melting point worked out at 148 °C. Under `O=C(O)c1ccc(CCCc2c(CCNS(=O)(=O)Cc3ccc(Cl)c(Cl)c3)n(C(c3ccccc3)c3ccccc3)c3ccc(Cl)cc23)cc1` stands 190 °C; under `COc1ccc(CCNC(=O)CCCCC(=O)NCCc2ccc(OC)c(OC)c2Cl)c(Cl)c1OC`, 159 to 161 °C. As to `CCc1noc(C)c1-c1[nH]c2ccccc2c1C(=O)CCC(=O)O`, the melting point lay within 98 to 110 °C. `COC1C(N2CCCC2=O)c2sccc2OC1(C)C` (configuration not stated) showed a melting point of 117 to 118 °C. `O=[N+]([O-])c1cc(C(F)(F)F)ccc1NCCN1CCN(C(c2ccccc2)c2ccccc2)CC1` came in with a melting point of 152 °C. In the case of `O=[N+]([O-])c1cc(C(F)(F)F)ccc1C(Br)c1cnoc1C1CC1` (configuration not stated), the melting point amounted to 146 °C.

As to `COc1cc(-c2ccc(O)c(C3(C)CCCCC3)c2)cc(CC2SC(N3CCCC3)=NC2=O)c1OC` (configuration not stated), the melting point lay within 227 to 230 °C.

The compound `O=C1NC(=O)C(Cc2ccccc2)S1` (configuration not stated) yielded a melting point of 83 to 86 °C. Turning to `CCCCCCCNC(=O)n1nc(Oc2ncc(C(F)(F)F)cc2Cl)c(Cl)c1C`, the melting point is 67 to 68 °C. Compound `CC(=O)OC(Cn1cncn1)(CC(Cl)(Cl)Cl)c1ccc(Cl)cc1` (configuration not stated) returned a melting point of 112 to 114 °C. In turn, `Cn1cc(C(=O)O)cc1C(=O)OC(c1ccc2c(c1)OCO2)c1ccc2c(c1)OCO2` yielded a melting point of 103 to 110 °C. In turn, `N#CC(C#N)=C1N(CCCN2CCCCC2)CCN1C1CCN(C(=O)C2CC2)CC1` yielded a melting point of 131 to 133 °C. As for `COc1ccc(/C=C/c2cc(OC)c(OC)c(OC)c2)cc1`, the melting point lay in the range of 152 to 155 °C.

`CCC1=C(C)C(=C(C#N)C#N)C(C)=C(CC)O1` came in with a melting point of 64 to 65 °C. `O=CCN1C=C(C(=O)O)Cc2cc(F)c(F)c(F)c21` displayed a melting point of 220 to 222 °C.

`COC(=O)C1(N2CCCCC2)CCN(Cc2ccccc2)CC1` returned a melting point of 84.7 °C.

`CN(C)CCc1ccc(O)c2[nH]nnc12`: the melting point lay within 207 to 211 °C. Next, `C#Cc1ncn2c(C(F)F)cc(-c3ccc(C(F)(F)F)cc3)nc12`: 135 °C; `CC(C)(C)OC(=O)NCc1cccc(Cn2ccc(OCc3ccc(F)cc3)c(Br)c2=O)c1`: 136 to 138 °C; `CCOC(=O)C1=C(COCC(C)(O)c2ccco2)NC(C)=C(C(=O)OC)C1c1cccc(Cl)c1Cl` (configuration not stated): 88 to 90 °C. `Cc1ccc(CC2(OCc3ccccc3)CCN(CC3Cc4cc(O)ccc4C3O)CC2)cc1` (configuration not stated) had a melting point of 131 to 132 °C. Turning to `CCC/C=C/[C@H]1CC[C@H](c2ccc(C(C)=O)cc2)CC1`, the melting point was determined as 51.2 °C.

`Cc1nc(-c2ccc3c(=O)n(CC(C)C)c(CNC(=O)OC(C)(C)C)c(-c4ccccc4)c3c2)sc1C#N` displayed a melting point of 209 to 211 °C. Next, `CCOC(=O)c1cn(CC)c2sc(Br)cc2c1=O`: 153 to 156 °C; `C[C@@H](C(=O)OCCCCNc1cccc2c1C(=O)c1ccccc1C2=O)N(C)C(=O)OC(C)(C)C`: 62 °C; `CC(=O)CC(=O)CCCCCCCC(=O)CC(C)=O`: 73 to 74 °C. The compound `CCOC(=O)c1cn(-c2ncc(F)c(NC(C)(C)C)n2)c2c(Cl)c(F)c(F)cc2c1=O` gave a melting point of 201 to 205 °C. Consider `O=C(Nc1ccc(-n2nc(C(F)(F)F)cc2C(F)(F)F)cc1)c1c(F)ccc([N+](=O)[O-])c1F`, for which the melting point is 187 to 189 °C. Under `CCN(CC)CCOc1ccc2[nH]c3c([N+](=O)[O-])ccc(Cl)c3c(=O)c2c1` stands 148 to 151 °C; under `COCc1nc2c(N)nc3ccccc3c2n1CC(C)(C)O`, 174 to 175 °C.

Take `CCc1cc(Br)cc2nc3c(=O)[nH][nH]c(=O)c3c(O)c12`: the melting point lay within 208 to 210 °C. Next, `CCc1c(Oc2cc(C)cc(C)c2)n(COCc2ccccc2)c(=O)[nH]c1=O`: 146 to 150 °C; `O=C(NO)c1ccc(CNC(=O)c2[nH]c(-c3ccccc3)cc2-c2cccc(Br)c2)cc1`: 145 to 146 °C; `CCCc1c(OCc2cccc(-c3nnn[nH]3)c2)ccc(C(C)=O)c1O`: 194 to 195 °C. Compound `CC1=NN(c2ccc3c(=O)n(CC(C)C)c(CN)c(-c4ccccc4)c3c2)CO1` gave a melting point of 179 to 181 °C. As to `COc1ccc(S(=O)(=O)NC(C)c2cc(F)ccc2-c2ccc(F)cc2F)c(OC)c1` (configuration not stated), the melting point was 192 to 194 °C.

In turn, `CCOC(=O)c1cccn2ccnc12` gave a melting point of 48 to 50 °C. Compound `CC(C)(C)c1ccc(CC[C@H](O)CCCC2CCCCC2)cc1NC(=O)CC1c2ccccc2Oc2ccccc21` showed a melting point of 128 to 129 °C.

On to `CCOC(=O)c1cnn(Cc2ccccc2)c1NC(=O)Nc1ccccc1`, for which the melting point is 178 to 179 °C.

`CCOCc1nc2c(N)nc3cc(Br)ccc3c2n1CC1COC(C)(C)O1` (configuration not stated) displayed a melting point of 176 to 177 °C. With `[N-]=[N+]=NCc1nc2ccccc2n1Cc1ccccc1`, the melting point lay in the range of 108 to 110 °C.

`OCC1CCC(N2CCC(=C3c4ccc(F)cc4Sc4ccc(C(F)(F)F)cc43)CC2)CC1` (configuration not stated): the melting point is 208 to 211 °C.
